The results in this text go back to patent US20040014217A1, “Methods of transfection” (priority 2000, published 2004).

The subject of data set [1] is 1HAEo-cells. As to the kind of experiment: pEGFP transfection efficiency by flow cytometry, 1HAEo- cells, Example 15. As to conditions: EGTA 2 mM versus no EGTA. It is filed as cell-based, human. In general terms: In flow cytometry, cells or beads pass a laser one at a time.
Description: Human airway epithelial cell lines, a normal cell line 1HAEo- and a CF cell line 2CFSMEo-, were used in this study. […] The apical medium was then removed and growth medium was added basolateraly to leave the cells growing at an air-liquid interface. Confluent cells were grown for further 10-14 days and were monitored with an ohmmeter (EVOM; World Precision Instruments, Stevenage, UK) until the transepithelial resistance was greater than 300 Ω·cm before transfection. […] Sub-confluent, proliferating cells were prepared by growing the cells for less then 3 days in growth medium prior to transfection.
Briefly, stock solutions of the three components of the LID vector complex were prepared first. Plasmid DNA (component D) was diluted in cell culture medium OptiMEM (Life Technologies, Paisley, UK) at a concentration of 0.01 μg/μl. […] The peptide component I was dissolved in Opti-MEM at 0.1 mg/ml. The lipid component L was Lipofectin, a commercially available equimolar mixture of the cationic lipid N-[1-(2,3-dioleyloxy)propyl]-n,n,n-trimethylammonium chloride (DOTMA) and the neutral lipid dioleoyl phosphotidylethanolamine (DOPE), (Life Technologies, Paisley, UK) and was used from purchase at 1 mg/ml. […]
The subject of the next data set is confluent 1HAEo-cells. In words: Immunofluorescence for tight junction protein occludin. It is filed as cell-based, human. As to conditions: 2 mM EGTA in Opti-MEM, 30 minutes. As to the method: To observe the double fluorescence labelling, the β-galactosidase-transfected and BrdU-labelled (as detailed above in Assay of cell proliferation) cells were fixed with 70% ethanol in 50 mM glycine buffer, pH 2.0, for 30 minutes at −20° C. The cells were then incubated with a mixture of two primary antibodies, the rabbit anti-p-galactosidase at 1:200 (Chemicon International Inc, Harrow, UK). and the mouse anti-BrdU at 1:10 (BrdU Labelling and Detection Kit; Roche, Basel, Switzerland), followed by incubation with a mixture of FITC-conjugated goat anti-rabbit IgG and texas red labelled horse anti-mouse IgG (Vector Laboratories, Peterborough, UK). Transwell inserts were then excised from the plastic holder and mounted on glass slides with aqueous mountant Vectashield (Vector Laboratories, Peterborough, UK). To observe the effects of EGTA on tight junction, the EGTA-treated cells were immunostained with a rabbit polyclonal antibody against tight junction protein occludin (Zymed, San Francisco, USA) diluted 1:10 with PBS. […] Images were observed and captured with an inverted fluorescence microscope (Olympus IX70, Olympus Optical Company, London, UK) for transwell and a confocal microscope (Leica TCS SP, Exton, Pa., USA) for excised inserts.

The subject of data set [2] is Human airway epithelial (HAE) cells. As to the kind of experiment: Luciferase (pCILuc) transfection of HAE cells, Example 13. The format is cell-based. As to the method: Transfection vector complexes were prepared as described in the Material and Methods section, see also Example 15. The complexes were prepared using 4 μg of the peptide, 0.75 μg of lipofectin and 1 μg of the reporter gene. All components and the vector complex were made up in OptiMEM (Life Technologies, Inc.). EGTA (Sigma) at a concentration of 100 mM in water was added to the transfection vector complex preparation at one hundredth of the volume of the vector complex, giving a final EGTA concentration of 1 mM.
The EGTA/vector complex mixture was added to the cultures, which were then harvested two days later. As controls, cultures were treated with OptiMEM medium alone and with the transfection vector complex without EGTA.
We obtained essentially the same results using the luciferase reporter gene instead of GFP. Transfections ere carried out using the transfection vector prepared as described above with the construct pCILuc, with and without EGTA, as described above. Luciferase assays were performed on cell-free extracts of harvested cells using a kit obtained from Promega using an Anthos Lucy 1 Luminometer. As with the GFP experiments, luciferase levels were enhanced approximately four-fold in confluent cells treated with EGTA compared with transfections performed without EGTA. […]

For data set [3] the test system is unchanged. In words: GFP transfection of HAE cells with or without EGTA (FACS), Example 13. It is filed as cell-based. As to conditions: EGTA 1 mM. The protocol: Human airway epithelial (HAE) cells, type HEAO— were seeded at 80% into 24 well plates. The cells were grown in Modified Eagle Medium (MEM) obtained from Life Technologies (Paisley, Scotland) supplemented with 10% foetal calf serum and 2 mM L-glutamine to form cultures of confluent cells. Subconfluent cultures of the same cells were also prepared.
The reporter genes used were a green fluorescent protein (GFP) reporter gene and a luciferase reporter gene. The GFP reporter gene was used in the form of plasmid pEGFP-N1, obtained from Clontech. The luciferase reporter gene was used in the form of construct pCILuc consisting of the firefly luciferase gene (Luc) inserted into the expresssion vector pCI (Promega, Southampton, England)
For these in vitro experiments peptide 12 [K]16XSXGACRRETAWACG (X: ε amino hexanoic acid), SEQ.ID.NO.: 26, was used. […]
Transfection levels using the luciferase reporter gene was measured as described in the Material and methods section. In the case of the GFP reporter gene, after harvesting the cells were analysed by fluorescence activated cell sorting (FACS) for quantification of the number of fluorescent cells.

Another data set concerns mouse lung. As to the kind of experiment: Transfection of mouse lungs in vivo (luciferase), intra-tracheal instillation.
In data set [4] the test system is 1HAEo-cells. In words: BrdU incorporation by flow cytometry, 1HAEo- cells. It is filed as cell-based, human. To be noted: EGTA 2 mM, aphidicolin 10 μg/ml where present. The protocol:
A BrdU Labelling and Detection Kit (Roche, Basel, Switzerland) was used, which contains the BrdU labelling reagent and the monoclonal mouse anti-BrdU. […] Cells were washed with PBS and incubated with a second layer antibody, Texas Red labelled horse anti-mouse IgG (Vector Laboratories, Peterborough, UK), for 30 minutes at 37° C. and then analysed by flow cytometry at the wavelength of 575±20 nm as detailed above. In some experiments, aphidicolin, a cell-proliferation inhibitor blocking the cell cycle in S-phase, was added to the cells to observe the effects on transfection efficiency.
(Dividing cells build labelled thymidine or BrdU into new DNA.)

Data set [5] deals with confluent epithelial cells. As to the kind of experiment: Transepithelial resistance after EGTA exposure. As to conditions: 2 mM EGTA; data not shown.

Description for mouse lung: Lipid (lipofectin) (1 mg/ml) and peptide 6 ([sequence]) (1 mg/ml) were mixed in one tube and pCILuc Plasmid DNA (1 mg/ml) and EGTA in phosphate buffer saline (PBS) were mixed together in another tube then the contents of the two tubes were mixed so that the final ratios were 0.75 μg lipid to 1 μg DNA and a final concentration of 100 mM EGTA (or no EGTA for the control). The protocol was repeated to give vector complexes having a final EGTA concentration of 400 mM.
Each mouse received 8 μg of plasmid DNA in a volume of 50 μl.
Cell lysis buffer (Promega, Southampton, England) was added to each lung (4 μl/mg). The tissue was then homogenised two times, on ice, for 30 seconds each time (Polytron PT10-35, Philip Harris, Nottingham, England). Lung homogenates were is centrifuged at 10,000×g at 4 C for 10 minutes, then 20 μl of the supernatant were added to 100 μl of luciferase assay buffer (Promega) and luminescence measured in a luminometer (TD-20/20; Steptech Instruments, Stevenage, England). All results were repeated in triplicate and the mean calculated.
The total protein concentration in the lysate was measured using a protein assay kit (Bio-Rad, Hemel Hempstead, Herts, England) and using bovine serum albumin as a standard. Luciferase activity was expressed in relative light units (RLU) for each sample of lung lysate minus the background and normalised per mg of protein.

`O=C(O)CN(CCOCCOCCN(CC(=O)O)CC(=O)O)CC(=O)O` [EGTA, ethylene glycol-bis(β-aminoethyl ether)-N,N,N′,N′-tetraacetic acid]: the “increase in transfection efficiency of confluent cells” value in the data set with 1HAEo-cells [1] is on record as 4 fold. For the same compound, in the data set with confluent 1HAEo-cells, the “effect on tight junctions (occludin immunofluorescence)” value is “disrupted the tight junctions”. Besides, the “enhancement of luciferase levels in confluent cells versus transfection without EGTA” value in data set [2] (pCILuc) was “approximately four-fold”. Also, the “transfection after pre-incubation of the cells with EGTA” value in data set [2] (pre-incubation before vector) is “no better than the results without EGTA”. In data set [3], the “effect on efficiency of transfection of sub-confluent cells” value is reported as “no effect” and the “increase of transfection levels of confluent cells” value is recorded as “four-fold”. For the same compound, the “enhancement of transfection of mouse lung (luciferase, RLU per mg lung protein)” value with mouse lung (100 mM EGTA, 8 μg plasmid DNA in 50 μl, intra-tracheal) is on record as “about four-fold”. Moreover, in the data set on mouse lung (400 mM EGTA in vivo), the lethality entry is listed as “lethal in many cases”. Also, the “BrdU-positive cells, sub-confluent 1HAEo- cells” value in the data set with 1HAEo-cells [4] is reported as “about 24%”. In data set [5], the “recovery of transepithelial resistance after removal” value fell in the range of 16 to 18 h and the “time after exposure at which transepithelial resistance dropped” value is reported as “about 10 minutes”.
